Results from patent publication US11110088B2, “Imidazopyrazine inhibitors of Bruton's tyrosine kinase” (Acerta Pharma B.V., priority 2015, dated 2021).

Key:
[1] = molecular target: Blk (Homo sapiens (Human), UniProt P51451); test: Blk Z-LYTE assay (Life Technologies); format: biochemical; details: Z-LYTE assay performed at Life Technologies
[2] = tested on: CD69 in CD19+ B cells of anti-IgM stimulated PBMCs; test: Human peripheral blood mononuclear cell (PBMC) CD69 assay; format: cell-based; details: Homo sapiens, PBMC, 2 h compound, then anti-IgM 18 hours
Description: Example 44—Human Peripheral Blood Mononuclear Cell (PBMC) CD69 Assay
Whole blood was collected in heparin-coated Vacutainer tubes (BD Biosciences, San Jose, Calif.) and used for isolation of PBMCs using Ficoll-Hypaque (Pharmacia, Uppsala, Sweden). Isolated PBMCs were cryopreserved in 90% FCS/10% DMSO until later use.
Cells from cryogenic storage were thawed in a 37° C. water bath, diluted with RPMI/1% FCS, washed 2 times, and then plated at 1×10^5 cells per well in RPMI/10% FCS.
Serial dilutions log 10 from 10 mM to 316 nM of test compounds are made in 100% DMSO, followed by a 100-fold dilution into RPMI/1% FCS. For each well, 10 μL was then transferred to the deep well plate containing 90 μL of PBMC cells. Final compound concentration range in the assay ranged from 10 μM to 0.316 nM, with a final DMSO concentration of 0.1%. PBMCs are then incubated for 2 h at 37° C. in presence or absence of test compounds, prior to stimulation with goat F(ab′)2 anti-IgM (Southern Biotech, #2022-14, final concentration in assay 5 μg/mL) for 18 hours.
Following stimulation with anti-IgM, PBMCs were incubated on ice for 30 min with anti-CD69-FITC, anti-CD19-BV421 (BD Biosciences #555530 and #562440, respectively) and 7AAD (Life Technologies #A1310). Flow cytometry was performed and fluorescence values were obtained from the CD69-FITC channel in CD19+ gated life B cells. ECso values are determined by curve fitting of the experimental results using GraphPad Prism.

[3] = molecular target: Jak3 (Homo sapiens (Human), UniProt P52333); test: Jak3 Z-LYTE assay (Life Technologies); format: biochemical; details: Z-LYTE assay performed at Life Technologies
[4] = molecular target: EGFR WT (Homo sapiens (Human), UniProt P00533); test: EGFR enzyme activity, IMAP assay; format: biochemical; details: 60 min pre-incubation; 2 μM ATP
Description: EGFR enzyme activity is measured using the IMAP (immobilized metal ion affinity-based fluorescence polarization) assay as outlined below.
EGFR enzyme (Invitrogen catalog #PR7295B), is diluted to 2.5 μg/mL in KR buffer (10 mM Tris-HCl, 10 mM MgCl2, 0.01% Tween-20, 0.1% NaN3, 1 mM DTT, 2 mM MnCl2, pH 7.5).
Final peptide substrate concentration in assay is 50 nM. […] Following incubation for 60 min at room temperature in the dark the enzyme reaction is stopped by adding 40 μL/well IMAP Progressive Binding Solution (according to suppliers (Molecular Devices) protocol using 20% 1× buffer A and 80% 1× buffer B with 600× diluted beads). After 60 min incubation at room temperature in the dark the FP signal is read. […] Values are calculated as percentage of the difference in readout (ΔmPi) of the controls with and without ATP. IC50 values are determined by curve fitting of the experimental results using GraphPad Prism6.

[5] = molecular target: Txk (Homo sapiens (Human), UniProt P42681); test: TXK enzyme activity, IMAP assay; format: biochemical; details: 60 min pre-incubation; 1 μM ATP
Description: TXK enzyme activity is measured using the IMAP (immobilized metal ion affinity-based fluorescence polarization) assay as outlined below.
TXK enzyme (Millipore #14-761), is diluted to 2.5 U/mL in KR buffer (10 mM Tris-HCl, 10 mM MgCl2, 0.01% Tween-20, 0.1% NaN3, 1 mM DTT, 2 mM MnCl2, pH 7.5).
(§1) Serial dilutions log 10 from 2 mM to 63.2 nM of test compounds are made in 100% DMSO. The dilutions in DMSO are then diluted 50-fold in KR-buffer. Final compound concentration range in the assay ranged from 10 μM to 0.316 nM.
The assay is performed as follows: 5 μL/well of test compound in KR buffer (final DMSO concentration in the assay is 1%) is mixed with 5 μL/well of 2.5 U/mL TXK enzyme (final concentration in the assay is 0.625 U/mL (4.4 nM)). Test compounds and TXK enzyme are pre-incubated 60 minutes at room temperature, before adding 5 μL/well of 200 nM Fluorescin labeled substrate peptide (Blk/Lyntide substrate #R7188, Molecular Devices) in KR-buffer. Final peptide substrate concentration in assay is 50 nM. […] Following incubation for 2 hours at room temperature the enzyme reaction is stopped by adding 40 μL/well IMAP Progressive Binding Solution (according to suppliers (Molecular Devices) protocol using 60% 1× buffer A and 40% 1× buffer B with 800× diluted beads (Progressive Binding System, Molecular Devices). After 60 min incubation at room temperature in the dark the FP signal is read. Fluorescence at 535 nm is measured using parallel and perpendicular filters to determine differences in rotation due to binding of the phosphorylated substrate peptide to the beads. Values are calculated as percentage of the difference in readout (ΔmPi) of the controls with and without ATP. IC50 values are determined by curve fitting of the experimental results using Activity Base.

[6] = molecular target: BTK (Homo sapiens (Human), UniProt Q06187); test: BTK enzyme activity, IMAP assay; format: biochemical; details: 60 min pre-incubation; 5 μM ATP
Description: BTK enzyme activity is measured using the IMAP (immobilized metal ion affinity-based fluorescence polarization) assay as outlined below.
BTK enzyme (His-BTK (Millipore catalog #14-552)), is diluted to 0.4 U/mL in KR buffer (10 mM Tris-HCl, 10 mM MgCl2, 0.01% Tween-20, 0.05% NaN3, 1 mM DTT, 2 mM MnCl2, pH 7.2).
as §1
The assay is performed as follows: 5 μL/well of test compound in KR buffer (final DMSO concentration in the assay is 1%) is mixed with 5 µl/well of 0.4 U/mL BTK enzyme (final concentration in the assay is 0.1 U/mL). Test compounds and BTK enzyme are pre-incubated 60 minutes at room temperature, before adding 5 μL/well of 200 nM Fluorescin labeled substrate peptide (Blk/Lyntide substrate, e.g. #R7188/#R7233, Molecular Devices) in KR-buffer. Final peptide substrate concentration in assay is 50 nM. […] Following incubation for 2 hours at room temperature the enzyme reaction is stopped by adding 40 μL/well IMAP Progressive Binding Solution (according to suppliers (Molecular Devices) protocol using 75% 1× buffer A and 25% 1× buffer B with 1:600 Progressive Binding Solution). After 60 min incubation at room temperature in the dark the FP signal is read. Fluorescence at 535 nm is measured using parallel and perpendicular filters to determine differences in rotation due to binding of the phosphorylated substrate peptide to the beads. Values are calculated as percentage of the difference in readout (ΔmPi) of the controls with and without ATP. IC50 values are determined by curve fitting of the experimental results using Activity Base.

[7] = molecular target: Bmx (Homo sapiens (Human), UniProt P51813); test: BMX enzyme activity, IMAP assay; format: biochemical; details: 60 min pre-incubation; 5 μM ATP
Description: BMX enzyme activity is measured using the IMAP (immobilized metal ion affinity-based fluorescence polarization) assay as outlined below.
(§2) The dilutions in DMSO are then diluted 50-fold in KR-buffer.
(§3) Test compounds and BMX enzyme are pre-incubated 60 minutes at room temperature, before adding 5 μL/well of 200 nM Fluorescin labeled substrate peptide (Blk/Lyntide substrate #R7188, Molecular Devices) in KR-buffer. Final peptide substrate concentration in assay is 50 nM. […] IC50 values are determined by curve fitting of the experimental results using Activity Base.

[8] = molecular target: ErbB4 (Homo sapiens (Human), UniProt Q15303); test: ErbB4 Z-LYTE assay (Life Technologies); format: biochemical; details: Z-LYTE assay performed at Life Technologies
[9] = molecular target: ITK (Homo sapiens (Human), UniProt Q08881); test: ITK enzyme activity, IMAP assay; format: biochemical; details: 60 min pre-incubation; 5 μM ATP
Description: ITK enzyme activity is measured using the IMAP (immobilized metal ion affinity-based fluorescence polarization) assay as outlined below.
ITK enzyme (Millipore #14-660M) is diluted to 0.2 U/mL in KR buffer (10 mM Tris-HCl, 10 mM MgCl2, 0.01% Tween-20, 0.1% NaN3, 1 mM DTT, 2 mM MnCl2, pH 7.5)
as §2
as §3, with “ITK” for “BMX”, “#R8124,” for “#R7188,”

[10] = molecular target: ErbB2 (Homo sapiens (Human), UniProt P04626); test: ErbB2 Z-LYTE assay (Life Technologies); format: biochemical; details: Z-LYTE assay performed at Life Technologies

Chain of Bmx (P51813 whole entry): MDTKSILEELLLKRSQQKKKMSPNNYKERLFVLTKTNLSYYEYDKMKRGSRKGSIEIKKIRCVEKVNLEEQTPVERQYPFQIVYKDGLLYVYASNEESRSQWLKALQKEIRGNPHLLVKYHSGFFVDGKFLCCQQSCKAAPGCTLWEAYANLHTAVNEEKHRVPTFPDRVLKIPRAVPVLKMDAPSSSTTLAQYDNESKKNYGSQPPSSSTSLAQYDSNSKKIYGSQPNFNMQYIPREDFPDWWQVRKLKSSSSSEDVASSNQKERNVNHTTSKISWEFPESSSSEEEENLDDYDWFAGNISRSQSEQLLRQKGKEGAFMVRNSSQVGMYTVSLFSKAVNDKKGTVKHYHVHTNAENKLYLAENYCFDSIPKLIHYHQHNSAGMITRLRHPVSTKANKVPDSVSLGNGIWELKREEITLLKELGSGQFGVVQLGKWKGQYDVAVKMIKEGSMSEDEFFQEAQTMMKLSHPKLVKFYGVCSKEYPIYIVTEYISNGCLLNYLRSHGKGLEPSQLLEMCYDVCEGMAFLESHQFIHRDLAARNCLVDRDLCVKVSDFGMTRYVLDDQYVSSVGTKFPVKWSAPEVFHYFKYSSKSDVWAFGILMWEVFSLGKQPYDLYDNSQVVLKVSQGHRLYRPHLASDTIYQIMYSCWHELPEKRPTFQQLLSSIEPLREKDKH
Chain of EGFR WT (P00533 25-1210): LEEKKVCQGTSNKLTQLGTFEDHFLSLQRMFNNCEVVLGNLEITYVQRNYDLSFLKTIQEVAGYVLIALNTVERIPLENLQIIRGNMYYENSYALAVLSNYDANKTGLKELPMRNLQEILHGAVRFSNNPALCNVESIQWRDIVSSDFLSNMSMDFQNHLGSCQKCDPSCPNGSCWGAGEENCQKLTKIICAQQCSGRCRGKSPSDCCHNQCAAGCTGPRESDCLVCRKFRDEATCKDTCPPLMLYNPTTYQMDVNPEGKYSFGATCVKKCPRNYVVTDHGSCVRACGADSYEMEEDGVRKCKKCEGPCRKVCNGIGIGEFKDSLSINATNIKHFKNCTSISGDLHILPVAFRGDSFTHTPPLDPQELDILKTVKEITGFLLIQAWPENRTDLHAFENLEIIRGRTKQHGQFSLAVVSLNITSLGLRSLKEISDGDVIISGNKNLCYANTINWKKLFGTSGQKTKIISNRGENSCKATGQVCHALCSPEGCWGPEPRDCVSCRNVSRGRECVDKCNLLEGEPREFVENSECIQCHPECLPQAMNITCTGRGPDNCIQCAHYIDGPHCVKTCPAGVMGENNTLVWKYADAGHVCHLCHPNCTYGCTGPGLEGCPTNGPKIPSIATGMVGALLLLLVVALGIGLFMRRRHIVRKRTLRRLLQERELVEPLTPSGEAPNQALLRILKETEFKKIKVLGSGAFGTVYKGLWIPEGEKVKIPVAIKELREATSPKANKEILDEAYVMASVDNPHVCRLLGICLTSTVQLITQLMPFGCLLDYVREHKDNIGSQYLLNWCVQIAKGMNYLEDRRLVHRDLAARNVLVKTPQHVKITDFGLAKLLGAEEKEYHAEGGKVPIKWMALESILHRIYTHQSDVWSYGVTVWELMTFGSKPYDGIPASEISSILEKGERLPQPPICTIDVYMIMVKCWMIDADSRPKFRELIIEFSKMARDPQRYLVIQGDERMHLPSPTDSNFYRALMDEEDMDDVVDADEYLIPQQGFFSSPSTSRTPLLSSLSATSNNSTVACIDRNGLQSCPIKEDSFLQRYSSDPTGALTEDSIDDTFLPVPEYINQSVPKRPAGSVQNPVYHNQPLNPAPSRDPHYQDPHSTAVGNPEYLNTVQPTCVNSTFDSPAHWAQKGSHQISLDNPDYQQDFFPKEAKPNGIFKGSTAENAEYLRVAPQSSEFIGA
Chain of ITK (Q08881 whole entry): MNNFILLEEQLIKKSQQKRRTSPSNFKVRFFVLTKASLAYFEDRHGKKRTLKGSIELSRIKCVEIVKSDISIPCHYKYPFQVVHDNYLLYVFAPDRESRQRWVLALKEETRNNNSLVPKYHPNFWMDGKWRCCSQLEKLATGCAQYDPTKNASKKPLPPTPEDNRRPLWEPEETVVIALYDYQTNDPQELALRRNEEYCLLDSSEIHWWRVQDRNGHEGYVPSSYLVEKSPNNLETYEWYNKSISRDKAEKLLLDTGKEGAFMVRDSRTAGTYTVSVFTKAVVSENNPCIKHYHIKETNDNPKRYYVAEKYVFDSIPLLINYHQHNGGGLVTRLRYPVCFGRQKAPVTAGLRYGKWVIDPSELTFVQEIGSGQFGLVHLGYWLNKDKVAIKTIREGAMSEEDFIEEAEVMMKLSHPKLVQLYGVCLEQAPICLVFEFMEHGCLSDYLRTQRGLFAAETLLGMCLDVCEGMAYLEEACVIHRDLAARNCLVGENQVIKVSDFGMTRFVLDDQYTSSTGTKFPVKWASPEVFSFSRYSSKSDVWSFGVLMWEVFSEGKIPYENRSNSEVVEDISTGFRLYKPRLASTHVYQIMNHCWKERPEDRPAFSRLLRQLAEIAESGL
Chain of Blk (P51451 whole entry): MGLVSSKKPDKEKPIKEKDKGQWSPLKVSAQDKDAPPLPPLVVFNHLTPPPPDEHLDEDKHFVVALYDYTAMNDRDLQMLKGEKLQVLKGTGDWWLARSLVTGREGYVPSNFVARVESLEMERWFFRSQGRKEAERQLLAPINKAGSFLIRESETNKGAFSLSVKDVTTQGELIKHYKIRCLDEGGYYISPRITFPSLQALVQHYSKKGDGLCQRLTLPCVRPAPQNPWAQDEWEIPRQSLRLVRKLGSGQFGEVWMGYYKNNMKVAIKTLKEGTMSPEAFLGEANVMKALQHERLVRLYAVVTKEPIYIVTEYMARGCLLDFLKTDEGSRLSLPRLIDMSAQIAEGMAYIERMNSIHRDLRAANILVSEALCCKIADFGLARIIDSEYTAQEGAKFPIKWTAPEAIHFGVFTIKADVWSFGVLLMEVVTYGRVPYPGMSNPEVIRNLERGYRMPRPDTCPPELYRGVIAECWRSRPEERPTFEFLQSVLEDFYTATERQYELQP
Chain of BTK (Q06187 whole entry): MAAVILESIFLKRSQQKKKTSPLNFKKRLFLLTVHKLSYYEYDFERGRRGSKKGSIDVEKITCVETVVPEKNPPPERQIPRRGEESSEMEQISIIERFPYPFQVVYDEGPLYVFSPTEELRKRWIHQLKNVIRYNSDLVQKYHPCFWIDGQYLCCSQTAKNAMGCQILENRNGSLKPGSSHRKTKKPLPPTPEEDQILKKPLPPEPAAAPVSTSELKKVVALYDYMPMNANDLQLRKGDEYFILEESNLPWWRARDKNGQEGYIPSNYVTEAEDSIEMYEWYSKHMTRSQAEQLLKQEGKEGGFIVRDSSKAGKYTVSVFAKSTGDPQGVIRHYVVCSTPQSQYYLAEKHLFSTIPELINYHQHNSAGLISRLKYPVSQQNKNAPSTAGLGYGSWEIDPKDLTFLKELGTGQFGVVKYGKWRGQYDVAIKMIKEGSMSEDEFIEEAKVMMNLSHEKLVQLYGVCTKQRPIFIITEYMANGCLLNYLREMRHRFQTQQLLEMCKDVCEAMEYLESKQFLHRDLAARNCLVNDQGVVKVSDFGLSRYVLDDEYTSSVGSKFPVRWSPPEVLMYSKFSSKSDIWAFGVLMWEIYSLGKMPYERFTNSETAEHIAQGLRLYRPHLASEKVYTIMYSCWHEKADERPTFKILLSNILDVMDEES
Chain of Txk (P42681 whole entry): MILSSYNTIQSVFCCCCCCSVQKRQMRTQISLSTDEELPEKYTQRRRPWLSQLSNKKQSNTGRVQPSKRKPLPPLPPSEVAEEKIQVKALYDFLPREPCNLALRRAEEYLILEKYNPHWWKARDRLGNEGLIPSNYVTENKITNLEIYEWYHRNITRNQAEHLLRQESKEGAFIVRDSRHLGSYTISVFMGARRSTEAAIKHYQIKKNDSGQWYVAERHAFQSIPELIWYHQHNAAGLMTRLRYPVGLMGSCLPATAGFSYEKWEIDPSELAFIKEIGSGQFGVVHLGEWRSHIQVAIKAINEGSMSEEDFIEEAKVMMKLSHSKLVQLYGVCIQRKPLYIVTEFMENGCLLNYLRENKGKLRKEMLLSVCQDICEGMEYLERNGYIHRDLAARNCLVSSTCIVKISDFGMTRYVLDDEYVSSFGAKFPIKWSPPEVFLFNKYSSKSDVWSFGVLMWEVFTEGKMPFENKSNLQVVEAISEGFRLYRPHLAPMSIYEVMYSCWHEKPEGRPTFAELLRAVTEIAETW

- IC50 [1]: 489 nM
- IC50 [3]: > 1000 nM
- IC50 [4]: > 1000 nM
- IC50 [5]: 16 nM
- IC50 [6]: 2.5 nM
- IC50 [7]: 14 nM
- IC50 [8]: 99 nM
- IC50 [9]: > 1000 nM
- IC50 [10]: > 1000 nM
Compound: CC#CC(=O)N1CCC[C@H]1c1nc(-c2ccc(C(=O)Nc3cc(C(F)(F)F)ccn3)c(OC)c2)c2c(N)nccn12
- EC50 [2]: 3.7 nM
